{"source": "patent US9856441B2", "about": "“Soap bar” (COLGATE-PALMOLIVE COMPANY, priority 2013, dated 2018)", "origin": "cited, not measured here"}
{"smiles": "NCCS(=O)(=O)O", "note": "[taurine, 2-aminoethanesulfonic acid]", "values": [{"measurement": "maximum solubility of taurine in water", "setting": "room temperature", "result": "about 6 weight %"}, {"measurement": "solubility of taurine itself", "setting": "taurine not in salt form", "result": "up to 6%"}]}
